Test systems include SF-539 CNS; RXF 393 renal; IGROV1 ovarian; ACHN renal; HS 578T breast; HCT-15 colon; UACC-257 melanoma; OVCAR-5 ovarian; MDA-MB-435; A549 NSCLC.
What all share (test): inhibition of tumour cell growth, NCI panel, 48 h

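96-well plates; 48 h exposure; 5 concentrations. Endpoints by linear interpolation between flanking doses. Not reached: highest tested concentration assigned. GI50 = concentration required for 50% inhibition of growth. Definition used: TGI = concentration required for complete inhibition of growth.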

Among the data in PubChem BioAssay (NCI) are GI50 and TGI values, retold here.

With `Cc1ccc(NC(=O)c2cccc(N(C)C)c2)cc1NC(=O)c1ccc(O)cc1`, the GI50 in the assay on SF-539 CNS is 41 µM; in the assay with RXF 393 renal, 38 µM; with IGROV1 ovarian, > 85.8 µM; in the assay on ACHN renal it was > 63.6 µM; in the assay with HS 578T breast, 63.6 µM; in the assay with HCT-15 colon it was 53.3 µM. Also, the GI50 in the assay with UACC-257 melanoma is > 68.2 µM; in the assay on OVCAR-5 ovarian it was > 82.4 µM; in the assay on MDA-MB-435 it was 52.3 µM; with A549 NSCLC it was 61.4 µM. In addition, the TGI with SF-539 CNS is > 100 µM; in the assay with RXF 393 renal, > 66.1 µM; in the assay with IGROV1 ovarian, > 100 µM; with ACHN renal, > 100 µM; in the assay with HS 578T breast, > 100 µM; in the assay on HCT-15 colon, > 100 µM. Moreover, the TGI in the assay with UACC-257 melanoma, in the assay on OVCAR-5 ovarian, in the assay with MDA-MB-435 and in the assay with A549 NSCLC was > 100 µM each time.
As for `NC(=O)c1ccc(I)c(N)c1`, the GI50 with SF-539 CNS, in the assay with RXF 393 renal, in the assay with IGROV1 ovarian, in the assay on ACHN renal, in the assay on HS 578T breast and with HCT-15 colon was > 100 µM each time. Also, the GI50 in the assay with UACC-257 melanoma, in the assay on OVCAR-5 ovarian, in the assay on MDA-MB-435 and with A549 NSCLC was > 100 µM in each case. For the same molecule, the TGI in the assay on SF-539 CNS, in the assay with RXF 393 renal, with IGROV1 ovarian, with ACHN renal, with HS 578T breast and with HCT-15 colon was > 100 µM each time. In addition, the TGI with UACC-257 melanoma, in the assay with OVCAR-5 ovarian, in the assay with MDA-MB-435 and in the assay with A549 NSCLC was > 100 µM in each case.
Turning to `C=C1C(=O)O[C@H]2[C@H]1CC/C(COC(=O)c1ccc3ccccc3c1)=C\CC[C@@]1(C)O[C@@H]21`, the GI50 in the assay on SF-539 CNS was 0.838 µM; in the assay with RXF 393 renal, 0.286 µM; with IGROV1 ovarian, 0.703 µM; in the assay on ACHN renal, 1.1 µM; in the assay on HS 578T breast, 1.53 µM; in the assay on HCT-15 colon, 0.394 µM. In addition, the GI50 is 1.39 µM in the assay on UACC-257 melanoma, 1.59 µM with OVCAR-5 ovarian, 1.1 µM with MDA-MB-435 and 1.59 µM in the assay on A549 NSCLC. For the same molecule, the TGI amounted to 2.23 µM in the assay on SF-539 CNS; 1.48 µM in the assay on RXF 393 renal; 2.19 µM with IGROV1 ovarian; 2.32 µM in the assay on ACHN renal; 4.51 µM in the assay with HS 578T breast; 1.66 µM in the assay with HCT-15 colon. Further, the TGI in the assay on UACC-257 melanoma was found to be 2.78 µM; with OVCAR-5 ovarian it was 3.57 µM; in the assay on MDA-MB-435, 2.45 µM; in the assay on A549 NSCLC, 3.43 µM.
As for `CN1CCN(C)C12C=c1ccccc1=CC21CC1`, the TGI in the assay on SF-539 CNS was > 100 µM; in the assay on RXF 393 renal, > 92.6 µM; in the assay with IGROV1 ovarian, > 100 µM; with ACHN renal, > 100 µM; with HS 578T breast, > 31.6 µM; in the assay with HCT-15 colon, 73.6 µM. The TGI in the assay on UACC-257 melanoma was 48.2 µM; in the assay on OVCAR-5 ovarian, > 100 µM; in the assay with MDA-MB-435 it was 48.3 µM; in the assay on A549 NSCLC, > 100 µM.
For `COC(=O)[C@]12CC[C@@H](C)[C@H](C)[C@@H]1C1=CC[C@@H]3[C@@]4(C)C/C(=N\O)[C@H](O)[C@@]5(C)COC(=C45)C[C@@]3(C)[C@]1(C)CC2`, the GI50 was 9.05 µM in the assay with SF-539 CNS; 2.41 µM with RXF 393 renal; 8.87 µM in the assay on IGROV1 ovarian; 2.58 µM in the assay with ACHN renal; 11.4 µM in the assay with HS 578T breast; 5.47 µM in the assay with HCT-15 colon. Moreover, the GI50 in the assay on UACC-257 melanoma is 18.6 µM; in the assay on OVCAR-5 ovarian it was 15.9 µM; in the assay on MDA-MB-435 it was 8.28 µM; in the assay with A549 NSCLC it was 10.4 µM. The TGI with SF-539 CNS came to 22.4 µM; with RXF 393 renal, 7.36 µM; in the assay on IGROV1 ovarian, 25.1 µM; with ACHN renal, 7.41 µM; with HS 578T breast, 32.5 µM; in the assay on HCT-15 colon it was 17.7 µM. The TGI with UACC-257 melanoma was found to be 34.5 µM; in the assay with OVCAR-5 ovarian, 33.6 µM; in the assay with MDA-MB-435, 22.2 µM; in the assay with A549 NSCLC, 24.4 µM.
Take `CC/C(=C(/c1ccc(O)cc1)c1ccc(OCCNC)cc1)c1ccccc1`: the GI50 in the assay on SF-539 CNS was 1.7 µM; with RXF 393 renal, 1.68 µM; in the assay on IGROV1 ovarian, 2.77 µM; with ACHN renal, 2.64 µM; in the assay with HS 578T breast, 1.87 µM; in the assay on HCT-15 colon, 1.87 µM. In addition, the GI50 in the assay on UACC-257 melanoma is 1.64 µM; with OVCAR-5 ovarian, 2.37 µM; in the assay on MDA-MB-435, 1.54 µM; in the assay with A549 NSCLC it was 1.89 µM. Further, the TGI was determined as 3.22 µM with SF-539 CNS; 3.69 µM in the assay on RXF 393 renal; 7.66 µM with IGROV1 ovarian; 7.52 µM in the assay on ACHN renal; 5.16 µM in the assay with HS 578T breast; 4.07 µM with HCT-15 colon. Moreover, the TGI in the assay on UACC-257 melanoma stood at 3.15 µM; in the assay with OVCAR-5 ovarian it was 6.25 µM; with MDA-MB-435 it was 2.98 µM; in the assay with A549 NSCLC it was 3.95 µM.
Regarding `CC(C)(C)OC(=O)N1CCc2c(sc3ncnc(N/N=C/c4cccc5ccccc45)c23)C1`, the GI50 in the assay on SF-539 CNS was 2.72 µM; with RXF 393 renal, 2.54 µM; with IGROV1 ovarian it was 3.94 µM; in the assay with ACHN renal, 3.24 µM; in the assay with HS 578T breast, 2.4 µM; in the assay with HCT-15 colon, 3.86 µM. The GI50 in the assay with UACC-257 melanoma is 5.8 µM; with OVCAR-5 ovarian, 4.71 µM; in the assay on MDA-MB-435, 2.47 µM; in the assay with A549 NSCLC, 3.64 µM. In addition, the TGI in the assay on SF-539 CNS was 8.59 µM; in the assay on RXF 393 renal, 7.41 µM; with IGROV1 ovarian, > 100 µM; in the assay on ACHN renal, 78.5 µM; with HS 578T breast it was > 100 µM; in the assay with HCT-15 colon, > 100 µM. Further, the TGI with UACC-257 melanoma is 69.6 µM; in the assay on OVCAR-5 ovarian, > 100 µM; in the assay on MDA-MB-435, 7.31 µM; in the assay with A549 NSCLC, > 100 µM.
As to `O=c1[nH]ncc(Br)c1Br`, the GI50 was 2.42 µM with SF-539 CNS; 1.38 µM with RXF 393 renal; 1.72 µM with IGROV1 ovarian; 1.79 µM with ACHN renal; 2.23 µM in the assay with HS 578T breast; 1.72 µM in the assay with HCT-15 colon. The GI50 in the assay on UACC-257 melanoma was 2 µM; in the assay with OVCAR-5 ovarian, 1.69 µM; in the assay on MDA-MB-435, 2.2 µM; in the assay with A549 NSCLC, 13.3 µM. Moreover, the TGI with SF-539 CNS came to 6.31 µM; with RXF 393 renal it was 2.71 µM; in the assay on IGROV1 ovarian, 3.68 µM; with ACHN renal it was 3.17 µM; in the assay on HS 578T breast it was 9.51 µM; with HCT-15 colon, 3.3 µM. The TGI with UACC-257 melanoma turned out to be 4.84 µM; with OVCAR-5 ovarian, 3.08 µM; in the assay on MDA-MB-435, 6.2 µM; in the assay with A549 NSCLC, 29.1 µM.
For `CC1(C)OC2[C@@H](CNC(=O)NC(=O)NC(=O)CI)O[C@@H](n3cnc4c(NC(=O)Nc5ccccc5)ncnc43)[C@H]2O1` (stereo not given in full), the GI50 in the assay on SF-539 CNS was 4.75 µM; with RXF 393 renal, 6.96 µM; in the assay on IGROV1 ovarian, 2.15 µM; in the assay with ACHN renal, 6.94 µM; with HS 578T breast, 12.5 µM; in the assay on HCT-15 colon it was 4.84 µM. Moreover, the GI50 with UACC-257 melanoma is 9.91 µM; in the assay on OVCAR-5 ovarian, 8.74 µM; in the assay on MDA-MB-435, 7.57 µM; in the assay with A549 NSCLC, > 50 µM. Also, the TGI with SF-539 CNS came out at 10.9 µM; in the assay on RXF 393 renal, 13.6 µM; in the assay on IGROV1 ovarian, 8.6 µM; with ACHN renal, 14.7 µM; with HS 578T breast, 37.8 µM; in the assay on HCT-15 colon, 11.9 µM. Besides, the TGI with UACC-257 melanoma is 17.8 µM; in the assay with OVCAR-5 ovarian, 18 µM; with MDA-MB-435 it was 14.8 µM; in the assay on A549 NSCLC, > 50 µM.
On to `CS(=O)(=O)c1ccc([C@H]2O[C@@H](CO)C[C@]2(O)c2ccc(S(C)(=O)=O)cc2)cc1`, for which the GI50 in the assay with SF-539 CNS, with RXF 393 renal, in the assay on IGROV1 ovarian, with ACHN renal, in the assay with HS 578T breast and in the assay on HCT-15 colon was > 100 µM each time. For the same molecule, the GI50 with UACC-257 melanoma, with OVCAR-5 ovarian, in the assay on MDA-MB-435 and in the assay on A549 NSCLC was > 100 µM throughout. Also, the TGI with SF-539 CNS, in the assay with RXF 393 renal, in the assay on IGROV1 ovarian, in the assay with ACHN renal, with HS 578T breast and in the assay on HCT-15 colon was > 100 µM throughout. Also, the TGI in the assay with UACC-257 melanoma, in the assay with OVCAR-5 ovarian, in the assay with MDA-MB-435 and in the assay on A549 NSCLC was > 100 µM throughout.
Regarding `O=C1CCCCN1CCCCC#Cc1ccccc1C#Cc1ccc([N+](=O)[O-])cc1`, the GI50 is 3.13 µM with SF-539 CNS; 1.68 µM in the assay with RXF 393 renal; 8.21 µM with IGROV1 ovarian; 3.44 µM in the assay on ACHN renal; 5.05 µM in the assay on HS 578T breast; 1.5 µM in the assay on HCT-15 colon. The GI50 is 2.89 µM in the assay with UACC-257 melanoma, 5.25 µM with OVCAR-5 ovarian, 1.68 µM in the assay on MDA-MB-435 and 3.03 µM in the assay with A549 NSCLC. The TGI was found to be 12.7 µM in the assay on SF-539 CNS; 11.1 µM in the assay with RXF 393 renal; 37.5 µM in the assay with IGROV1 ovarian; 11.3 µM in the assay on ACHN renal; 23.5 µM with HS 578T breast; 9.89 µM with HCT-15 colon. The TGI in the assay on UACC-257 melanoma was 8.24 µM; in the assay with OVCAR-5 ovarian it was 18.7 µM; in the assay on MDA-MB-435, 4.83 µM; in the assay with A549 NSCLC it was 13 µM.
Turning to `COc1cc([N+](=O)[O-])cc2c3c(n(C)c12)[C@@]1(C)CCC2c4ccc(OCc5ccccc5)cc4CCC2C1C3` (stereo not given in full), the GI50 is 66.7 µM in the assay with SF-539 CNS; 40.8 µM in the assay with RXF 393 renal; > 100 µM with IGROV1 ovarian; > 100 µM in the assay on ACHN renal; > 100 µM in the assay with HS 578T breast; 53.5 µM with HCT-15 colon. Moreover, the GI50 was 85.6 µM in the assay with UACC-257 melanoma, > 100 µM with OVCAR-5 ovarian, > 100 µM in the assay on MDA-MB-435 and 72.2 µM in the assay with A549 NSCLC. For the same molecule, the TGI with SF-539 CNS, with RXF 393 renal, in the assay on IGROV1 ovarian, in the assay on ACHN renal, in the assay with HS 578T breast and in the assay with HCT-15 colon was > 100 µM throughout. Also, the TGI with UACC-257 melanoma, in the assay with OVCAR-5 ovarian, in the assay on MDA-MB-435 and in the assay on A549 NSCLC was > 100 µM each time.
